In US20260176289A1, “SMALL MOLECULE INHIBITORS OF KRAS PROTEINS” (Merck Sharp & Dohme LLC, priority 2022, published 2026):
Read-outs that look alike come from different tables or passages of the source.

Key:
SW620 cells = assay: Cellular phospho-ERK assay, SW620 cells (homozygous KRAS-G12V); type: cell-based; details: Homo sapiens, read-out: SW620 pERK IC50
How it was run: (§1)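 p-ERK/total ERK ratio, measured by AlphaLISA SureFire Ultra multiplex in lysates, was fitted to a 4-parameter logistic model for IC50. Compound exposure was 2 h at 37° C, 5% CO2, 10-point 1:3 dilutions from 30 μM final, on cells plated the previous night.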

[1] = target: KRAS-G12C (C51S/C80L/C118S) (Homo sapiens, UniProt P01116, C118S/C51S/C80L/G12C); assay: SOS-catalyzed nucleotide exchange assay (Procedure A, TR-FRET), KRAS-G12C; type: biochemical; details: nucleotide exchange, Procedure A; read-out: KRAS G12C GNE IC50
Chain of KRAS-G12C (C51S/C80L/C118S) (P01116 with tags, fused parts or gaps isoform P01116-2 G12C/C51S/C80L/C118S): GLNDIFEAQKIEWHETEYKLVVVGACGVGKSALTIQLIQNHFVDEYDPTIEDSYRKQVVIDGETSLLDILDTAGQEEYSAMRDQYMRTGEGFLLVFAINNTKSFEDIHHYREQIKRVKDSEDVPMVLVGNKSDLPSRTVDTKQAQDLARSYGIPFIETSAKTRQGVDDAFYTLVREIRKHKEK
How it was run: (§2)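 RAS (G12C carries C51S/C80L/C118S) loaded with Bodipy-GDP, complexed with Tb-streptavidin; cpd 60 min RT; + SOS/3 mM GTP. G12C 3/40 nM, WT 1/40, NRAS 1.25/40 nM RAS/SOS, 60 min; G12V 1.25/160 nM, 90 min. Normalized to DMSO and saturating inhibitor; 4PL fit.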

MKN-1 cells = assay: Cellular phospho-ERK assay, MKN-1 cells (amplified wild-type KRAS); type: cell-based; details: Homo sapiens, read-out: MKN1 pERK IC50
How it was run: as §1

HRAS = HRAS (Homo sapiens, UniProt P01112); assay: SOS-catalyzed nucleotide exchange assay (Procedure A, TR-FRET), HRAS; type: biochemical; details: read-out: HRAS GNE IC50
Chain of HRAS (P01112 with tags, fused parts or gaps): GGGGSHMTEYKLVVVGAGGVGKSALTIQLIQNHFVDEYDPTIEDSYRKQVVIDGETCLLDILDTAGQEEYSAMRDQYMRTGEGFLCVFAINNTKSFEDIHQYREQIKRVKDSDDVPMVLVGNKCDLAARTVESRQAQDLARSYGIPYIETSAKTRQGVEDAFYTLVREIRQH
Source text: Procedure for SOS-Catalyzed Nucleotide Exchange Assay for KRAS-WT, G12C/D/V, G13D, HRAS, and NRAS (Procedure A)
Recombinant KRAS-G12C protein used in this assay has an additional triple mutation (C51S/C80L/C118S). Whereas KRAS-WT, G12D/V, G13D, HRAS and NRAS are in context of their WT protein sequence background. Specifically, the SOS-catalyzed nucleotide exchange assay utilizes a preformed TR-FRET complex containing a specific biotinylated RAS protein (KRAS-WT, G12C/V/D, G13D, HRAS, NRAS; described above) with Bodipy-GDP, and Terbium-streptavidin. Compounds are preincubated with this complex for 60 minutes. Subsequently, recombinant human SOS protein and unlabeled GTP are added to initiate the exchange reaction. Small molecule inhibitors stabilize the Bodipy-GDP complex whereas the untreated protein rapidly exchanges Bodipy-GDP for unlabeled GTP resulting in reduced TR-FRET signal.
To assemble the preformed TR-FRET complexes, each biotinylated RAS protein is diluted to 2 μM in an EDTA Buffer (20 mM HEPES pH 7.5, 50 mM sodium chloride, 10 mM EDTA, and 0.01% Tween) and incubated at room temperature for one hour. This mixture is then further diluted to 90 nM in an Assay Buffer (20 mM HEPES pH 7.5, 150 mM sodium chloride, 10 mM magnesium chloride, and 0.005% Tween) containing 15 nM of Terbium-Streptavidin (Invitrogen, catalog #PV3577) and 900 nM of Bodipy-GDP (Invitrogen, catalog #G22360) and incubated at room temperature for six hours. It should be noted that this preformed TR-FRET complex for each of the RAS protein were made ahead of time, aliquoted and stored at −80° C. until the day of the experiment.
Each test compound (10 mM stock in DMSO) is diluted in DMSO to make a final-10-point, 3-fold dilution and is acoustically dispensed into a 384-well assay plate (Corning, catalog #3820) using an Echo 550 (Labcyte). Each well of the assay plate receives 3 μL of a specific 3×RAS preformed TR-FRET complex and 3 μL of Assay Buffer and is incubated at room temperature for 60 minutes (preincubation time). Each well then receives 3 μL of 3×recombinant human SOS protein and GTP (Sigma, G8877) in Assay Buffer and is incubated at room temperature for 30 minutes (G13D), 60 minutes (KRAS WT/G12C/D, H/NRAS) or 90 minutes for G12V. The final reaction in each well of 9 μL consists of 3 mM GTP, specific Ras and SOS proteins in the following concentrations: KRAS-G12C/SOS=3 nM/40 nM, KRAS-WT and G12D/SOS=1 nM/40 nM, KRAS-G12V/SOS=1.25 nM/160 nM. KRAS-G13D/SOS=1.25 nM/0 nM, HRAS and NRAS=1.25 nM/40 nM.
The time-resolved fluorescence resonance energy transfer (TR-FRET) signal is measured on an Envision (PerkinElmer) plate reader: Excitation filter=340 nm; emission 1=495 nm; emission2=520 nm; dichroic mirror=D400/D505; delay time=[…]. The signal of each well is determined as the ratio of the emission at 520 nm to that at 495 nm. Percent effect of each well is determined after normalization to control wells containing DMSO (no effect) or a saturating concentration of inhibitor (max effect). The apparent effect as a function of compound concentration is fit to a four-parameter logistic equation.

KRAS-G12V = KRAS-G12V (Homo sapiens, UniProt P01116, G12V); assay: SOS-catalyzed nucleotide exchange assay (Procedure A, TR-FRET), KRAS-G12V; type: biochemical; details: nucleotide exchange, read-out: KRAS G12V GNE IC50
Chain of KRAS-G12V (P01116 with tags, fused parts or gaps isoform P01116-2 G12V): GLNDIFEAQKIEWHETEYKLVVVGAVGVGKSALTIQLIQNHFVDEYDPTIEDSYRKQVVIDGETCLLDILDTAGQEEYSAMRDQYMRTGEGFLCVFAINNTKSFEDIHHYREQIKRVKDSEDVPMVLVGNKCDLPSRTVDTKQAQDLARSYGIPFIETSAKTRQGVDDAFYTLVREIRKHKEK
How it was run: as §2

AsPC-1 cells = assay: Cellular phospho-ERK assay, AsPC-1 cells (homozygous KRAS-G12D); type: cell-based; details: Homo sapiens, ASPC1, 2 h, read-out: AsPC1 pERK IC50
How it was run: as §1

KRAS-G12D = KRAS-G12D (Homo sapiens, UniProt P01116, G12D); assay: SOS-catalyzed nucleotide exchange assay (Procedure A, TR-FRET), KRAS-G12D; type: biochemical; details: nucleotide exchange, read-out: KRAS G12D GNE IC50
Chain of KRAS-G12D (P01116 with tags, fused parts or gaps isoform P01116-2 G12D): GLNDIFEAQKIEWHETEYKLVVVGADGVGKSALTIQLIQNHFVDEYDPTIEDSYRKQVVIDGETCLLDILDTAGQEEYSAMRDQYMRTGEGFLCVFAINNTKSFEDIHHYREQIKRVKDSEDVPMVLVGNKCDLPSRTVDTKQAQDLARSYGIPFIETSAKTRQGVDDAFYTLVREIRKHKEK
How it was run: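 Signal ratio (520/495 nm, excitation 340 nm) reports Bodipy-GDP retention on biotinylated RAS after SOS-catalyzed exchange with 3 mM GTP. SOS was 40 nM, except 160 nM for G12V. Room-temperature exchange lasted 60 min (90 min for G12V), following a 60 min compound preincubation.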

KRAS-WT = KRAS-WT (Homo sapiens, UniProt P01116); assay: SOS-catalyzed nucleotide exchange assay (Procedure A, TR-FRET), KRAS-WT; type: biochemical; details: nucleotide exchange, read-out: KRAS WT GNE IC50
Chain of KRAS-WT (P01116 with tags, fused parts or gaps isoform P01116-2): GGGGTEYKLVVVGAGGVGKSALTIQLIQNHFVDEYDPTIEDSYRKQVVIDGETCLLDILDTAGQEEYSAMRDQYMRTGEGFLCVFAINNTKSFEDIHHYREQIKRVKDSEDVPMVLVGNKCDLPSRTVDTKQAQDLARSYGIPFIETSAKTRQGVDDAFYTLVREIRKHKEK
How it was run: as §2

KRAS-G13D = KRAS-G13D (Homo sapiens, UniProt P01116, G13D); assay: SOS-catalyzed nucleotide exchange assay (Procedure A, TR-FRET), KRAS-G13D; type: biochemical; details: nucleotide exchange, Procedure A; read-out: KRAS G13D GNE IC50
Chain of KRAS-G13D (P01116 with tags, fused parts or gaps isoform P01116-2 G13D): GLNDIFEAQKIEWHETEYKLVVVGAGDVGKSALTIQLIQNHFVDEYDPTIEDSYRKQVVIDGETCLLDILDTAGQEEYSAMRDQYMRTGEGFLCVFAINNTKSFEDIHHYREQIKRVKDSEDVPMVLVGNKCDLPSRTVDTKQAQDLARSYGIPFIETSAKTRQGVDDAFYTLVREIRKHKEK

[2] = SW-620, 2 hours compound incubation
[3] = amplified wild-type KRAS, 2 hours

Row | IC50 (SW620 cells; [2]) [nM] | IC50 [1] [nM] | IC50 (MKN-1 cells; 2 hours compound incubation) [nM] | IC50 (HRAS) [nM] | IC50 (KRAS-G12V) [nM] | IC50 (AsPC-1 cells; 2 hours compound incubation) [nM] | IC50 (KRAS-G12D) [nM] | IC50 (KRAS-WT) [nM] | IC50 (KRAS-G13D) [nM] | Structure (SMILES) | IC50 (SW620 cells; SW-620, KRAS-G12V, 2 hours) [nM] | IC50 (MKN-1 cells; [3]) [nM] | IC50 (AsPC-1 cells; KRAS-G12D, 2 hours) [nM]
1 | 49.6 | 15.2 | 49.7 | 1060 | 15.9 | 57.6 | 4.1 | 20.1 | 18.4 | C[C@H]1CCN1C[C@@]1(COc2nc(N3CCOC[C@@](C)(O)C3)c3c(n2)sc2c(-c4c(C5(F)CC5)c(Cl)cc5[nH]ncc45)nccc23)CC1(F)F [Ex-253, (6S)-4-(8-(6-chloro-5-(1-fluorocyclopropyl)-1H-indazol-4-yl)-2-(((R)-2,2-difluoro-1-(((S)-2-methylazetidin-1-yl)methyl)cyclopropyl)metho-xy)pyrido[4′,3′:4,5]thieno[2,3-d]pyrimidin-4-yl)-6-methyl-1,4-oxazepan-6-ol] | – | – | –
2 | 7.87 | 53.2 | 19.9 | 5540 | 5.25 | 18.9 | 2.43 | 4.41 | 4.55 | C#Cc1c(F)ccc2cc3[nH]ncc3c(-c3nccc4c3sc3nc(OC[C@@]56CCCN5C[C@H](F)C6)nc(N5CCOC[C@@](C)(O)C5)c34)c12 [Ex-160, (6S)-4-(8-(5-ethynyl-6-fluoro-1H-benzo[f]indazol-4-yl)-2-(((2R,7aS)-2-fluorotetrahydro-1H-pyrrolizin-7a(5H)-yl)methoxy)pyrido[4′,3′:4,5]thieno[2,3-d]pyrimidin-4-yl)-6-methyl-1,4-oxazepan-6-ol] | – | – | –
3 | 40.1 | 86.7 | 25.3 | 1390 | 14.9 | 93.3 | 4.79 | 18.5 | 12.8 | C[C@@]1(O)COCCN(c2nc(OC[C@]3(CN4C[C@H]5CCCO[C@H]5C4)CC3(F)F)nc3sc4c(-c5c(C6(F)CC6)c(Cl)cc6[nH]ncc56)nccc4c23)C1 [Ex-255, (6S)-4-(8-(6-chloro-5-(1-fluorocyclopropyl)-1H-indazol-4-yl)-2-(((R)-2,2-difluoro-1-(((4aR,7aR)-hexahydropyrano[2,3-c]pyrrol-6(2H)-yl)methyl)cyclopropyl)metho-xy)pyrido[4′,3′:4,5]thieno[2,3-d]pyrimidin-4-yl)-6-methyl-1,4-oxazepan-6-o1] | – | – | –
4 | 39.2 | 68.8 | 47.3 | 1290 | 21.6 | 89.7 | 3.75 | 23.4 | 28.2 | C[C@@]1(O)COCCN(c2nc(OC[C@]3(CN4CC(CF)C4)CC3(F)F)nc3sc4c(-c5c(C6(F)CC6)c(Cl)cc6[nH]ncc56)nccc4c23)C1 [Ex-266, (6S)-4-(8-(6-chloro-5-(1-fluorocyclopropyl)-1H-indazol-4-yl)-2-(((R)-2,2-difluoro-1-((3-(fluoromethyl)azetidin-1-yl)methyl)cyclopropyl)metho-xy)pyrido[4′,3′:4,5]thieno[2,3-d]pyrimidin-4-yl)-6-methyl-1,4-oxazepan-6-ol] | – | – | –
5 | 10.5 | 38.7 | 24.2 | 5130 | 5.09 | 12.3 | 1.65 | 4.38 | 5.03 | C#Cc1cccc2cc3[nH]ncc3c(-c3nccc4c3sc3nc(OC[C@@]56CCCN5C[C@H](F)C6)nc(N5CCOC[C@@](C)(O)C5)c34)c12 [Ex-171, (6S)-4-(8-(5-ethynyl-1H-benzo[f]indazol-4-yl)-2-(((2R,7aS)-2-fluorotetrahydro-1H-pyrrolizin-7a(5H)-yl)methoxy)pyrido[4′,3′:4,5]thieno[2,3-d]pyrimidin-4-yl)-6-methyl-1,4-oxazepan-6-ol] | – | – | –
6 | 47.6 | 19.1 | 44 | 1290 | 12.9 | 70.4 | 4.22 | 18.5 | 15.9 | C[C@@]1(O)COCCN(c2nc(OC[C@]3(CN4CC5(CCOC5)C4)CC3(F)F)nc3sc4c(-c5c(C6(F)CC6)c(Cl)cc6[nH]ncc56)nccc4c23)C1 [Ex-245, (6S)-4-(2-(((R)-1-((6-oxa-2-azaspiro[3.4]octan-2-yl)methyl)-2,2-difluorocyclopropyl)methoxy)-8-(6-chloro-5-(1-fluorocyclopropyl)-1H-indazol-4-yl)pyrido[4′,3′:4,5]thieno[2,3-d)pyrimidin-4-yl)-6-methyl-1,4-oxazepan-6-ol] | – | – | –

Row | Structure (SMILES) | IC50 (SW620 cells; [2]) [nM] | IC50 [1] [nM] | IC50 (MKN-1 cells; 2 hours compound incubation) [nM] | IC50 (HRAS) [nM] | IC50 (KRAS-G12V) [nM] | IC50 (AsPC-1 cells; 2 hours compound incubation) [nM] | IC50 (KRAS-G12D) [nM] | IC50 (KRAS-WT) [nM] | IC50 (KRAS-G13D) [nM] | IC50 (SW620 cells; SW-620, KRAS-G12V, 2 hours) [nM] | IC50 (MKN-1 cells; [3]) [nM] | IC50 (AsPC-1 cells; KRAS-G12D, 2 hours) [nM]
7 | C[C@@]1(O)COCCN(c2nc(OC[C@@]34CCCN3C[C@H](F)C4)nc3sc4c(-c5c(C6CC6)c(Cl)cc6[nH]ncc56)nncc4c23)C1 [Ex-280, (6S)-4-(8-(6-chloro-5-cyclopropyl-1H-indazol-4-yl)-2-(((2R,7aS)-2-fluorotetrahydro-1H-pyrrolizin-7a(5H)-yl)methoxy)pyrimi-do[5′,4′:4,5]thieno[2,3-d]pyridazin-4-yl)-6-methyl-1,4-oxazepan-6-ol] | – | 61 | – | 8660 | 12.4 | – | 4.55 | 9.47 | 4.89 | 106 | 62 | 78.2
8 | CC1CCc2cc3[nH]ncc3c(-c3nccc4c3sc3nc(OC[C@@]56CCCN5C[C@H](F)C6)nc(N5CCOC[C@@](C)(O)C5)c34)c21 (single isomer, unassigned) [Ex-103] | – | 18.1 | – | 8010 | 8.72 | – | 2.12 | 6.28 | 4.51 | 19.9 | 30.9 | 26.3
